Laboratory results published in PMC7559231, “Drug-induced cholestasis assay in primary hepatocytes” (MethodsX, 2020).
Read-outs that look alike come from different tables or passages of the source.

Experiments:
[1] = system: sandwich-cultured human hepatocytes; conditions: SCHH, ref [6],[7], cited from earlier work; for DICI 24 h Mean: 24 h exposure; for DICI 48 h Mean: 48 h exposure
[2] = system: sandwich-cultured human hepatocytes; assay: Drug-induced cholestasis (DIC) assay: urea formation in sandwich-cultured human hepatocytes with and without the bile salt mixture; conditions: lowest in vitro concentration with DICI < 0.78 / Cmax,total; for DICI-based SM obtained with the ‘original’ LOAEL method 24 h: 24 h incubation; for DICI-based SM obtained with the ‘original’ LOAEL method 48 h: 48 h incubation
Description: Drug-induced cholestasis (DIC) is a major cause of attrition during drug development and post-marketing withdrawal. Early detection of DIC is crucial for avoiding financial losses and improving drug safety. Preclinical assays for DIC detection often rely on evaluation of the test compound towards individual cellular targets such as their inhibitory potential towards the bile salt export pump (BSEP) by using BSEP membrane vesicles. However, the underlying mechanisms of DIC development are more complex involving multiple other transporters and nuclear receptors. A more comprehensive in vitro model such as sandwich-cultured human hepatocytes (SCHH) are more suited due to the presence of metabolizing enzymes and transporters relevant to bile salt disposition. The assay described here relies on changes in the ability of SCHH to produce urea from ammonia in the absence and presence of a (patho-)physiologically relevant bile salt mixture. Ammonia is detoxified in the hepatocyte by the urea cycle to form non-toxic urea. Measuring changes in urea production allows for the quantitative evaluation of the hepatocyte's biochemical and functional integrity. The colorimetric quantitation of urea formation is based on the reaction between urea and diacetylmonoxime.
By determining the ratio of urea formation after incubation with test compound in absence and in presence of the bile salt mixture, the DIC index (DICI) value can be calculated. […] It was previously established that a compound with a SM below 30 can be considered to display increased risk for causing cholestasis in the clinic.
If longer incubations are required (e.g. 48 h), the medium is changed again after 24 h (day 6) with fresh medium containing the same initial concentrations of test compound and bile salts as 24 h before.
• Solution 1: culture medium with no compound and 0.2% DMSO. […] This solution should be filtered through a 0.2 µm filter and prewarmed for 30 min at 37°C. • Solution 4: culture medium with double concentrated test compound. […] This solution should be filtered through a 0.2 µm filter and prewarmed for 30 min at 37°C. • Solution 5: control medium with bile salts, prepared by mixing solution 1 and solution 2 in a 1:1 ratio. • Solution 6: culture medium with positive control without bile salts, prepared by mixing solution 1 and solution 3 in a 1:1 ratio. • Solution 7: culture medium with positive control with bile salts, prepared by mixing solution 2 and solution 3 in a 1:1 ratio. • Solution 8: culture medium with test compound without bile salts, prepared by mixing solution 1 and solution 4 in a 1:1 ratio. • Solution 9: culture medium with test compound with bile salts, prepared by mixing solution 2 and solution 4 in a 1:1 ratio.
• 1. On day 5, aspirate the medium and preincubate the cells with solution 1, solution 6 or solution 8 for 2 h. Note: this preincubation step is performed to enable the compounds to interact with the cellular machinery. • 2. After 2 h, aspirate the medium and immediately incubate the cells with solution 1, solution 5, solution 6, solution 7, solution 8 or solution 9 for 22 h.
The urea assay is performed on day 6 or day 7 for 24 h and 48 h incubations, respectively.
• Solutions for the color reagent. […] Note: perform this procedure on ice as this is an exothermic reaction. Wear appropriate protective gear. • ○ Solution B prepared by mixing the thiosemicarbazide solution and the diacetyl monoxime in a 1:1 ratio. • Incubation buffer: HBSS containing 10 mM HEPES, 2 mM glutamine, 10 mM ammonium chloride and 3 mM ornithine, filtered through a 0.2 µm filter and prewarmed at 37°C. • 96-well thermostable plate with aluminum cover slip.
• 1. Aspirate the culture medium. • 2. Wash the wells twice with 250 µL prewarmed incubation buffer. Aspirate the remaining buffer. • 3. Add 125 µL prewarmed incubation buffer to each well and keep the plate at 37°C for 1 h. • 4.

[3] = set-up: method as in per compound in column References of Table 3 ([3], [24]-[44]); conditions: mean total peak plasma concentration in humans; ref per compound in Table 3 ([3], [24]-[44]); cited from earlier work

| Compound | DICI 24 h Mean ([1]; 50 µM test compound) | DICI 24 h Mean ([1]; 100 µM test compound) | DICI-based SM obtained with the ‘original’ LOAEL method 24 h [2] | Cmax,total [3] | DICI 24 h Mean ([1]; 10 µM test compound) | DICI 48 h Mean ([1]; 10 µM test compound) | DICI 48 h Mean ([1]; 50 µM test compound) | DICI 48 h Mean ([1]; 100 µM test compound) | DICI-based SM obtained with the ‘original’ LOAEL method 48 h [2] | further results |
| --- | --- | --- | --- | --- | --- | --- | --- | --- | --- | --- |
| CC[C@H]1OC(=O)[C@H](C)[C@@H](O[C@H]2C[C@@](C)(OC)[C@@H](O)[C@H](C)O2)[C@H](C)[C@@H](O[C@@H]2O[C@H](C)C[C@H](N(C)C)[C@H]2O)[C@](C)(O)C[C@@H](C)C(=O)[C@H](C)[C@@H](O)[C@]1(C)O [Erythromycin, erythromycin] | 0.94 | 1.29 | 50.38 | 3.97 µM | – | – | – | – | – | DICI 24 h Mean ([1]; 200 µM test compound): 1.42 |
| O=c1[nH]c(=O)n([C@@H]2O[C@H](CO)[C@@H](O)[C@@H]2F)cc1I [Fialuridine, fialuridine] | 0.79 | 1.12 | 468.75 | 0.64 µM | 0.88 | 0.92 | 1.19 | 0.89 | – | DICI 24 h Mean ([1]; 20 µM test compound): 0.94; DICI 48 h Mean ([1]; 20 µM test compound): 0.79; DICI 24 h Mean ([1]; 30 µM test compound): 0.95; DICI 48 h Mean ([1]; 30 µM test compound): 1.26; DICI 24 h Mean ([1]; 300 µM test compound): 0.82; DICI 48 h Mean ([1]; 300 µM test compound): 0.96 |
| CCC(=O)O[C@@H]1CC(=O)O[C@H](C)C/C=C/C=C/[C@H](O)[C@H](C)C[C@H](CC=O)[C@H](O[C@@H]2O[C@H](C)[C@@H](O[C@H]3C[C@@](C)(O)[C@@H](OC(=O)CC)[C@H](C)O3)[C@H](N(C)C)[C@H]2O)[C@H]1OC [Midecamycin, midecamycin] | – | 0.71 | 50 | 2 µM | – | – | – | 1.07 | 50 | – |
| CCc1nn(CCCN2CCN(c3cccc(Cl)c3)CC2)c(=O)n1CCOc1ccccc1 [Nefazodone, nefazodone] | – | – | – | 4.26 µM | 0.69 | 1.18 | – | – | 7.04 | DICI 24 h Mean ([1]; 30 µM test compound): 0.77; DICI 48 h Mean ([1]; 30 µM test compound): 0.37; DICI 24 h Mean ([1]; 130 µM test compound): 1.09 |
| CCc1ccc(CCOc2ccc(CC3SC(=O)NC3=O)cc2)nc1 (stereo not drawn) [Pioglitazone, pioglitazone] | 1.15 | 1.00 | 101.69 | 2.95 µM | – | – | – | – | 101.69 | DICI 24 h Mean ([1]; 300 µM test compound): 0.94 |
| Cc1ccc(C(=O)c2cc(O)c(O)c([N+](=O)[O-])c2)cc1 [Tolcapone, tolcapone] | 0.91 | – | 1.05 | 47.6 µM | 1.05 | 0.89 | 0.79 | – | 1.05 | DICI 24 h Mean ([1]; 5 µM test compound): 0.98; DICI 48 h Mean ([1]; 5 µM test compound): 1.01 |
| Cc1c(C)c2c(c(C)c1O)CCC(C)(COc1ccc(CC3SC(=O)NC3=O)cc1)O2 (stereo not drawn) [Troglitazone, troglitazone] | 1.02 | 0.74 | 15.65 | 6.39 µM | – | – | 1.00 | 0.24 | 15.65 | DICI 24 h Mean ([1]; 20 µM test compound): 0.98; DICI 48 h Mean ([1]; 20 µM test compound): 1.09; DICI 24 h Mean ([1]; 75 µM test compound): 0.78; DICI 48 h Mean ([1]; 75 µM test compound): 0.79 |
| CCOC(=O)CN[C@@H](C(=O)N1CC[C@H]1C(=O)NCc1ccc(/C(N)=N\O)cc1)C1CCCCC1 [Ximelagatran, ximelagatran] | 0.95 | – | 500 | 0.3 µM | – | – | 0.93 | – | 500 | DICI 24 h Mean ([1]; 25 µM test compound): 0.85; DICI 48 h Mean ([1]; 25 µM test compound): 0.95; DICI 24 h Mean ([1]; 150 µM test compound): 1.02; DICI 48 h Mean ([1]; 150 µM test compound): 1.05 |
